Entries after “also recorded” stand apart in the source; their conditions may differ.
Tests used:
[1] = biological target: T1, PHLPP2 (Homo sapiens, UniProt Q6ZVD8); assay: pNPP hydrolysis phosphatase assay (selectivity panel); assay type: biochemical; details: pNPP as substrate
T1 sequence (Q6ZVD8 1-1323): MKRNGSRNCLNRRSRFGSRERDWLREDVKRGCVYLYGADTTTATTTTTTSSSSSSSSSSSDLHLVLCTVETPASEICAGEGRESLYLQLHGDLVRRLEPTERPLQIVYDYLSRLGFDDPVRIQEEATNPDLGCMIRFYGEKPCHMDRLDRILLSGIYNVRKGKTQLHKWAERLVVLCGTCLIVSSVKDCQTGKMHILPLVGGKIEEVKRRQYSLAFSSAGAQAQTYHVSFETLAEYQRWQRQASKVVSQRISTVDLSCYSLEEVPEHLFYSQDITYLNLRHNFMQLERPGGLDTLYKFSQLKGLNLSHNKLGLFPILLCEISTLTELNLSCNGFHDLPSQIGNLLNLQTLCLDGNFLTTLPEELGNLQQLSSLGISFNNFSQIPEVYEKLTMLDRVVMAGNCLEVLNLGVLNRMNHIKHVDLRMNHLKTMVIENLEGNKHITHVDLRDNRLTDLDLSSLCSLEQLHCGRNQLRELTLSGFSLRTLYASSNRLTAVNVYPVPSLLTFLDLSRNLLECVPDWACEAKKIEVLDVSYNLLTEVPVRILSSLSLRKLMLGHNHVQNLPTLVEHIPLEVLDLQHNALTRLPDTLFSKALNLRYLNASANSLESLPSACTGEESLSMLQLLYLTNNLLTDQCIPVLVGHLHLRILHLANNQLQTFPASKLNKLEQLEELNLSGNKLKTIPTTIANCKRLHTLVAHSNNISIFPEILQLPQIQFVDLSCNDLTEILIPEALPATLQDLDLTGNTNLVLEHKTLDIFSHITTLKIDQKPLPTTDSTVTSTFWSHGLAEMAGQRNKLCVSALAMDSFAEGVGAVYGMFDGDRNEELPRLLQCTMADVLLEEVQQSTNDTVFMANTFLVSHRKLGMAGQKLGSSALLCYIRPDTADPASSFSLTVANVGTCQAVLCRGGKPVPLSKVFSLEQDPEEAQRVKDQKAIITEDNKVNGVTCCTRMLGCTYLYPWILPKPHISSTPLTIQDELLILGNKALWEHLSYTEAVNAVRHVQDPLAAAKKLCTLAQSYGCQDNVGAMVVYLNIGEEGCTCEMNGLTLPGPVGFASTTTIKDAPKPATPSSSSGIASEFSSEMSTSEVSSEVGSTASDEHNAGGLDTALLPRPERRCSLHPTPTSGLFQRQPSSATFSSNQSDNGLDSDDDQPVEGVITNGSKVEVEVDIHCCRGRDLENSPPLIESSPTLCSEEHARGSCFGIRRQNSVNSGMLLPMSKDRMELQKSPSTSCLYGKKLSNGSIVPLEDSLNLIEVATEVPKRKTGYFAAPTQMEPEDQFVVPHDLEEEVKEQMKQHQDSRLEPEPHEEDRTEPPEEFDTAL

[2] = biological target: T2, STEP (Homo sapiens, UniProt P54829); assay: as above; assay type: biochemical; details: pNPP as substrate
T2 sequence (P54829 1-565): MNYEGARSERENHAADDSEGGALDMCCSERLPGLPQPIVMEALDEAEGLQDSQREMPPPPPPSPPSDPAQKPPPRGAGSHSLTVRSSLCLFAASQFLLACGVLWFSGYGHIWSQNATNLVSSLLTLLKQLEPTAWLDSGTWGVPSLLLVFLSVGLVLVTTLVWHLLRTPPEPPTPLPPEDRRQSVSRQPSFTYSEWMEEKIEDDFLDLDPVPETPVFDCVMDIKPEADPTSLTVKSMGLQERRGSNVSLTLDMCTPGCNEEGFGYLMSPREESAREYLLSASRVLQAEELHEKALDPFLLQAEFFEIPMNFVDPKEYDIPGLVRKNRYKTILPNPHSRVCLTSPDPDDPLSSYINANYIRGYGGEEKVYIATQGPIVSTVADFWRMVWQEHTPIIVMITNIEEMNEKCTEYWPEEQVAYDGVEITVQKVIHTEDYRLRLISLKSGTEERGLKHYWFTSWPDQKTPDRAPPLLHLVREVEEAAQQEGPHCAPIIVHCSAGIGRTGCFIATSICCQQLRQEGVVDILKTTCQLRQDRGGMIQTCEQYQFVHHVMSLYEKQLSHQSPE

[3] = test system: topoisomerases; assay: Topoisomerase inhibition in vitro; assay type: biochemical; details: data not shown
[4] = biological target: T3, PPM1A (Homo sapiens, UniProt P35813); assay: pNPP hydrolysis phosphatase assay (selectivity panel); assay type: biochemical
T3 sequence (P35813 1-382): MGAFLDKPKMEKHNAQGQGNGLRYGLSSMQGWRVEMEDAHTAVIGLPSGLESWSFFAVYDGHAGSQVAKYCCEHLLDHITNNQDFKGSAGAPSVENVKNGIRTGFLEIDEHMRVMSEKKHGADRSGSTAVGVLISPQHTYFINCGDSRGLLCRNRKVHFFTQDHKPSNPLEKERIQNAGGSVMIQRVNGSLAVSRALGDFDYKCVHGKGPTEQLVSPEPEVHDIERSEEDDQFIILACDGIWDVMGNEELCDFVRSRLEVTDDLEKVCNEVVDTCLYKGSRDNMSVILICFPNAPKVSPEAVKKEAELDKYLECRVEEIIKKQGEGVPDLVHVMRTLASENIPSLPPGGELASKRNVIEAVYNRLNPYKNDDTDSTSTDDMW

[5] = biological target: YPH (Yersinia enterocolitica, UniProt P15273); assay type: biochemical
[6] = test system: HL7702 cells with PPM1B shRNA; assay: Phospho Explorer Antibody Microarray, PPM1B knockdown plus HN252; details: in the presence of HN252
Protocol: Phosphorylation profiling was performed by using the Phospho Explorer Antibody Microarray from Full Moon BioSystems, Inc (Sunnyvale, CA), according to the protocol which was previously described. ^24 In brief, cell lysates obtained from HL7702 cells treated by HN252 or DMSO for different hours or transfected with lentiviral vectors carrying shRNAs for 36 h were biotinylated with the Antibody Array Assay Kit (Full Moon BioSystems, Inc), and the data were analysed with the GenePixTM Pro 4.0 image analysis software.

YPH, sequence (P15273 163-468 limits assumed): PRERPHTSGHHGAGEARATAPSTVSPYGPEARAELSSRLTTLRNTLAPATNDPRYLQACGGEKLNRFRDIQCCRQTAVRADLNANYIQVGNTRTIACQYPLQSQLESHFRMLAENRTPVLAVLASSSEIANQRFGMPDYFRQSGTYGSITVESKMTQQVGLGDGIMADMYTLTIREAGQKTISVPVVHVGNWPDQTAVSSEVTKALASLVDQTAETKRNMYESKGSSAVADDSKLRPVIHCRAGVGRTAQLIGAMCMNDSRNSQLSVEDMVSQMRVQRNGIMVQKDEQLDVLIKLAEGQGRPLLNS

## Nc1cc(-c2ccc(-c3ccc(O)c(O)c3)cc2)ccc1C(=O)O [HN252]
[1]
  IC50: 20.9 ± 1.74 µM
[2]
  IC50: 91.1 ± 10.1 µM
[3]
  inhibition against topoisomerases: no inhibition
[4]; Lineweaver-Burk plot, pNPP hydrolysis, pH 7.0, 37°C, 0.4 μM PPM1A
  inhibition pattern: non-competitive inhibition; also recorded: non‐competitive inhibitor
[4]; pNPP as substrate
  IC50: 0.72 ± 0.22 µM
[5]
  IC50: 77.2 ± 7.95 µM
[6]
  number of proteins with further enhanced phosphorylation compared to PPM1B knockdown (>1.5-fold): 8

Reference: publication PMC7701510, “Identification of HN252 as a potent inhibitor of protein phosphatase PPM1B” (Journal of Cellular and Molecular Medicine, 2020)
